Source: ChEMBL document CHEMBL5518186, “Discovery of the cereblon-recruiting tubulin PROTACs effective in overcoming Taxol resistance in vitro and in vivo” (Eur J Med Chem, 2024)
One block for each compound: values may come before it. Active and inactive are the calls of the source. The rule behind the calls is not given here.

Columns and labels:
[1] = target: T1, Estrogen receptor (Homo sapiens) (UniProt P03372); assay: Induction of ER degradation (unknown origin)
T1 sequence (whole entry): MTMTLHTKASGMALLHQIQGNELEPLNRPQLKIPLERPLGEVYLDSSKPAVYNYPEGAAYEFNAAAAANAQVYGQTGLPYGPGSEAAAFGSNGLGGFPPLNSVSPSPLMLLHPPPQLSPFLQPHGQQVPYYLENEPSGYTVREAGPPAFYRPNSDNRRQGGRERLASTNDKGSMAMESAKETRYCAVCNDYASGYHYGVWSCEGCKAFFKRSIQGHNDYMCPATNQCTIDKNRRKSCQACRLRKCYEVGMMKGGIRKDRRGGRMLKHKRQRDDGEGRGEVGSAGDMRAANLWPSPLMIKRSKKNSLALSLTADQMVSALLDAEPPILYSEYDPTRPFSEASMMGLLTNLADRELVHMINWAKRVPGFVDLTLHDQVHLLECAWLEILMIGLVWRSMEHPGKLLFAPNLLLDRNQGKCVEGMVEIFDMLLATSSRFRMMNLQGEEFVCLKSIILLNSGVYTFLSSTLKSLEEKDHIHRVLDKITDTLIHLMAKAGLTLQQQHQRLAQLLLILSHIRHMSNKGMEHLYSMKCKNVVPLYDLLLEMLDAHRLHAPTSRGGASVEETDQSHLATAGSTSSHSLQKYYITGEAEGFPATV

[2] = tested on: A549; assay: Antiproliferative activity against human A549 cells incubated for 72 hrs; assay type: functional, cell-based; details: A549, 72 h
[3] = tested on: A549/TR; assay: Induction of cell cycle arrest in human A549/Taxol cells assessed as accumulation of cells at G0/G1 phase at 0.1 uM incubated for 24 hrs by PI staining based flow cytometry analysis (reference value: 77.86%); assay type: functional
[4] = tested on: A549/TR; assay: Induction of cell cycle arrest in human A549/Taxol cells assessed as accumulation of cells at S phase at 0.1 uM incubated for 24 hrs by PI staining based flow cytometry analysis (reference value: 2.85%); assay type: functional
[5] = tested on: A549/TR; assay: Induction of cell cycle arrest in human A549/Taxol cells assessed as accumulation of cells at G2/M phase at 0.1 uM incubated for 24 hrs by PI staining based flow cytometry analysis (reference value: 17.02%); assay type: functional
[6] = tested on: A549/TR; assay: Induction of apoptosis in human A549/Taxol cells at 0.1 uM incubated for 48 hrs by Annexin V-FITC/PI staining based flow cytometry analysis; assay type: functional
[7] = tested on: A549/TR; assay: Inhibition of cell growth in human A549/Taxol cells incubated for 72 hrs by SRB method; assay type: functional, cell-based
[8] = tested on: A549; assay: Induction of cell cycle arrest in human A549 cells assessed as accumulation of cells at G0/G1 phase at 0.02 uM incubated for 24 hrs by PI staining based flow cytometry analysis (reference value: 66.75%); assay type: functional
[9] = tested on: A549; assay: Induction of cell cycle arrest in human A549 cells assessed as accumulation of cells at S phase at 0.02 uM incubated for 24 hrs by PI staining based flow cytometry analysis (reference value: 2.85%); assay type: functional
[10] = tested on: A549; assay: Induction of cell cycle arrest in human A549 cells assessed as accumulation of cells at G2/M phase at 0.02 uM incubated for 24 hrs by PI staining based flow cytometry analysis (reference value: 31.86%); assay type: functional
[11] = tested on: A549/TR; assay: Induction of cell cycle arrest in human A549/Taxol cells assessed as accumulation of cells at G0/G1 phase at 1 uM incubated for 24 hrs by PI staining based flow cytometry analysis (reference value: 77.86%); assay type: functional
[12] = tested on: A549/TR; assay: Induction of cell cycle arrest in human A549/Taxol cells assessed as accumulation of cells at S phase at 1 uM incubated for 24 hrs by PI staining based flow cytometry analysis (reference value: 2.85%); assay type: functional
[13] = tested on: A549/TR; assay: Induction of cell cycle arrest in human A549/Taxol cells assessed as accumulation of cells at G2/M phase at 1 uM incubated for 24 hrs by PI staining based flow cytometry analysis (reference value: 17.02%); assay type: functional
[14] = tested on: A549/TR; assay: Induction of apoptosis in human A549/Taxol cells at 1 uM incubated for 48 hrs by Annexin V-FITC/PI staining based flow cytometry analysis; assay type: functional
[15] = tested on: A549; assay: Antitumor activity against human A549 cells xenografted in nude mouse assessed as decrease in tumor volume at 10 mg/kg, ip administered once every 2 days for 23 days by Vernier caliper method; assay type: functional, organism-based; details: time 23.0 day
[16] = tested on: A549; assay: Antitumor activity against human A549 cells xenografted in nude mouse assessed as decrease in tumor weight at 10 mg/kg, ip administered once every 2 days for 23 days by Vernier caliper method; assay type: functional, organism-based; details: time 23.0 day
[17] = tested on: A549; assay: Antitumor activity against human A549 cells xenografted in nude mouse assessed as tumor growth inhibition at 10 mg/kg, ip administered once every 2 days for 23 days by Vernier caliper method; assay type: functional; details: A549, 552 h, time 23 day, read-out: TGI
[18] = tested on: A549/TR; assay: Antitumor activity against human A549/Taxol cells xenografted in nude mouse assessed as tumor growth inhibition at 10 mg/kg, ip administered once every 2 days for 23 days by Vernier caliper method; assay type: functional; details: 552 h, time 23 day, read-out: TGI
[19] = Toxicity in nude mouse xenografted with human A549 cells assessed as body weight loss at 10 mg/kg, ip administered once every 2 days for 23 days and measured every 3 days; assay type: organism-based; details: in vivo, 552 h, time 23 day
[20] = Toxicity in nude mouse xenografted with human A549/Taxol cells assessed as body weight loss at 10 mg/kg, ip administered once every 2 days for 23 days and measured every 3 days; assay type: organism-based, A549/TR; details: in vivo, 552 h, time 23 day
[21] = tested on: MCF7; assay: Antiproliferative activity against human MCF7 cells incubated for 72 hrs; assay type: functional, cell-based; details: MCF7, 72 h
[22] = tested on: HepG2; assay: Antiproliferative activity against human HepG2 cells incubated for 72 hrs; assay type: functional, cell-based; details: HepG2, 72 h
[23] = tested on: MGC-803; assay: Antiproliferative activity against human MGC-803 cells incubated for 72 hrs; assay type: functional, cell-based; details: MGC-803, 72 h
[24] = tested on: HeLa; assay: Antiproliferative activity against human HeLa cells incubated for 72 hrs; assay type: functional, cell-based
[25] = tested on: U-937; assay: Antiproliferative activity against human U-937 cells incubated for 72 hrs; assay type: functional, cell-based; details: U-937, 72 h
[26] = target: T2, Protein cereblon-alpha tubulin (Homo sapiens) (UniProt P0DPH7+P68366+Q71U36+P68363+Q9BQE3+Q6PEY2+A6NHL2+Q9NY65+Q96SW2); assay: Protac activity at CRBN/alpha-tubulin in human A549 cells assessed as reduction in alpha-tubulin level at 0.01 to 1 uM incubated for 48 hrs by immunoblotting analysis; assay type: cell-based; details: dose 0.01-1 µM
[27] = target: T3, Protein cereblon/Tubulin beta (Homo sapiens) (UniProt P68371+Q9H4B7+Q13509+P04350+Q3ZCM7+P07437+Q13885+Q9BVA1+Q9BUF5+Q96SW2+A6NNZ2); assay: Protac activity at CRBN/beta-tubulin in human A549 cells assessed as reduction in beta-tubulin level at 0.01 to 1 uM incubated for 48 hrs by immunoblotting analysis; assay type: cell-based; details: dose 0.01-1 µM
[28] = target: T4, Protein cereblon/Tubulin beta-3 chain (Homo sapiens, UniProt Q13509+Q96SW2); assay: Protac activity at CRBN/beta3-tubulin in human A549 cells assessed as reduction in beta3-tubulin level at 0.01 to 1 uM incubated for 48 hrs by immunoblotting analysis; assay type: cell-based; details: dose 0.01-1 µM
Target sequence in this assay (Q13509 whole entry, looked up): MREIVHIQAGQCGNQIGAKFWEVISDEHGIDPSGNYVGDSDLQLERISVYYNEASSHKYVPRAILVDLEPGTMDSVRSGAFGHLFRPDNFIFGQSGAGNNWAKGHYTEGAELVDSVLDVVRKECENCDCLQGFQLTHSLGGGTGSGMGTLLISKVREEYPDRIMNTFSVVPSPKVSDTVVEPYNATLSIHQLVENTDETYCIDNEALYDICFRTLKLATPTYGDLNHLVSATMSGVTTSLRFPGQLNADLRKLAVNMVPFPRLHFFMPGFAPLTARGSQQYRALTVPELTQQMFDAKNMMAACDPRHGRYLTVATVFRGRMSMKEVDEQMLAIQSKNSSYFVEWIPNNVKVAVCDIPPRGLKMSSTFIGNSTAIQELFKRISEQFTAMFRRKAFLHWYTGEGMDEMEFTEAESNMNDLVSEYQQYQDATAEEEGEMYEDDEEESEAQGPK
Target sequence in this assay (Q96SW2 whole entry, looked up): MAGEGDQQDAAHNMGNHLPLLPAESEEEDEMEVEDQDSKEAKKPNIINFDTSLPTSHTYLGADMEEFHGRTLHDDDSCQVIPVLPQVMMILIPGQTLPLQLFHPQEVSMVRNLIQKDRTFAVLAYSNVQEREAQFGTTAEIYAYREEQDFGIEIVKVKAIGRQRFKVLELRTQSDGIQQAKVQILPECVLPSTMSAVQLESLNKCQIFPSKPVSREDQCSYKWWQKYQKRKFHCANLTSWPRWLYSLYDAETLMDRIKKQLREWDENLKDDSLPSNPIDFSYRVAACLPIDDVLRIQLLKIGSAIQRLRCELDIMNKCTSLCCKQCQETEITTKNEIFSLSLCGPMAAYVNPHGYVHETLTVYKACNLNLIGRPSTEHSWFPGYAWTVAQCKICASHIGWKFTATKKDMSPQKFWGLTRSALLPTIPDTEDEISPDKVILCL

[29] = target: T2, Protein cereblon-alpha tubulin (Homo sapiens); assay: (§1) Protac activity at CRBN/alpha-tubulin in human A549 cells assessed as reduction in alpha-tubulin level incubated for 48 hrs by immunoblotting analysis; assay type: cell-based
[30] = target: Protein cereblon-alpha tubulin; assay: as §1; assay type: cell-based
[31] = target: T3, Protein cereblon/Tubulin beta (Homo sapiens); assay: (§2) Protac activity at CRBN/beta-tubulin in human A549 cells assessed as reduction in beta-tubulin level incubated for 48 hrs by immunoblotting analysis; assay type: cell-based
[32] = target: Protein cereblon/Tubulin beta; assay: as §2; assay type: cell-based
[33] = target: T4, Protein cereblon/Tubulin beta-3 chain; assay: Protac activity at CRBN/beta3-tubulin in human A549 cells assessed as reduction in beta3-tubulin level incubated for 48 hrs by immunoblotting analysis; assay type: cell-based
[34] = target: T2, Protein cereblon-alpha tubulin (Homo sapiens); assay: (§3) Protac activity at CRBN/alpha-tubulin in human A549/Taxol cells assessed as reduction in alpha-tubulin level incubated for 48 hrs by immunoblotting analysis; assay type: cell-based
[35] = target: Protein cereblon-alpha tubulin; assay: as §3; assay type: cell-based
[36] = target: T3, Protein cereblon/Tubulin beta (Homo sapiens); assay: (§4) Protac activity at CRBN/beta-tubulin in human A549/Taxol cells assessed as reduction in beta-tubulin level incubated for 48 hrs by immunoblotting analysis; assay type: cell-based
[37] = target: Protein cereblon/Tubulin beta; assay: as §4; assay type: cell-based
[38] = target: T4, Protein cereblon/Tubulin beta-3 chain; assay: Protac activity at CRBN/beta3-tubulin in human A549/Taxol cells assessed as reduction in beta3-tubulin level incubated for 48 hrs by immunoblotting analysis; assay type: cell-based

Activity [1]: < 89%
SMILES: O=C1CC[C@H](N2Cc3cc(N4CCN(CC5CCN(c6ccc([C@@H]7c8ccc(O)cc8CC[C@@H]7c7ccccc7)cc6)CC5)CC4)ccc3C2=O)C(=O)N1

SMILES: COc1ccc(/C=C\c2cc(OC)c(OC)c(OC)c2)cc1O [COMBRETASTATIN A4]
IC50 [2]: 5 nM
Activity [3]: 21.17%
Activity [4]: 17.89%
Activity [5]: 64.76%
Activity [6]: 26.9%

IC50 [7]: 1030 nM
SMILES: CC(=O)O[C@H]1C(=O)[C@@]2(C)[C@H]([C@H](OC(=O)c3ccccc3)[C@]3(O)C[C@H](OC(=O)[C@H](O)[C@@H](NC(=O)c4ccccc4)c4ccccc4)C(C)=C1C3(C)C)[C@]1(OC(C)=O)CO[C@@H]1C[C@@H]2O [PACLITAXEL]
Activity [8]: 10.8%
Activity [9]: 6.1%
Activity [10]: 83.1%
Activity [11]: 20.43%
Activity [12]: 5.77%
Activity [13]: 74.23%
Activity [14]: 22.7%
Activity [15]: Active
Activity [16]: Active
inhibition in vivo at 10 mg/kg [17]: 28.5%
inhibition in vivo at 10 mg/kg [18]: 52%
Activity [19]: Non-Toxic
Activity [20]: Non-Toxic

IC50 [21]: 17 nM
IC50 [2]: 12 nM
IC50 [22]: 6 nM
IC50 [23]: 8 nM
IC50 [24]: 23 nM
IC50 [25]: 22 nM
Activity [26]: Active
Activity [27]: Active
Activity [28]: Active
Activity [29]: Dose-Dependent Effect
DC50 [30]: 883 nM
Activity [31]: Dose-Dependent Effect
DC50 [32]: 35 nM
Activity [33]: Dose-Dependent Effect
Activity [34]: Dose-Dependent Effect
DC50 [35]: 105 nM
Activity [36]: Dose-Dependent Effect
DC50 [37]: 9 nM
Activity [38]: Dose-Dependent Effect
DC50 [38]: 18 nM
SMILES: COc1ccc(/C=C\c2cc(OC)c(OC)c(OC)c2)cc1OC(=O)CCCCNc1cccc2c1C(=O)N(C1CCC(=O)NC1=O)C2=O (centres undefined)

IC50 [21]: > 5000 nM
IC50 [2]: > 5000 nM
IC50 [22]: > 5000 nM
IC50 [23]: > 5000 nM
IC50 [24]: > 5000 nM
IC50 [25]: > 5000 nM
SMILES: COc1ccc(/C=C\c2cc(OC)c(OC)c(OC)c2)cc1OC(=O)CNc1cccc2c1C(=O)N(C1CCC(=O)NC1=O)C2=O (centres undefined)

IC50 [21]: > 5000 nM
IC50 [2]: > 5000 nM
IC50 [22]: > 5000 nM
IC50 [23]: > 5000 nM
IC50 [24]: > 5000 nM
IC50 [25]: > 5000 nM
SMILES: COc1ccc(/C=C\c2cc(OC)c(OC)c(OC)c2)cc1OC(=O)CCCCN1C(=O)CCC(N2Cc3c(N)cccc3C2=O)C1=O (centres undefined)

IC50 [21]: 17 nM
IC50 [2]: 19 nM
IC50 [22]: 7 nM
IC50 [23]: 9 nM
IC50 [24]: 23 nM
IC50 [25]: 6 nM
Activity [26]: Active
Activity [27]: Active
Activity [28]: Active
Activity [29]: Dose-Dependent Effect
Activity [31]: Dose-Dependent Effect
DC50 [32]: 165 nM
Activity [33]: Dose-Dependent Effect
DC50 [33]: 294 nM
Activity [34]: Dose-Dependent Effect
DC50 [35]: 114 nM
Activity [36]: Dose-Dependent Effect
DC50 [37]: 52 nM
Activity [38]: Dose-Dependent Effect
SMILES: COc1ccc(/C=C\c2cc(OC)c(OC)c(OC)c2)cc1OC(=O)CCCCCNc1cccc2c1C(=O)N(C1CCC(=O)NC1=O)C2=O (centres undefined)

IC50 [21]: > 5000 nM
IC50 [2]: > 5000 nM
IC50 [22]: > 5000 nM
IC50 [23]: > 5000 nM
IC50 [24]: > 5000 nM
IC50 [25]: > 5000 nM
SMILES: COc1ccc(/C=C\c2cc(OC)c(OC)c(OC)c2)cc1OC(=O)CCN1C(=O)CCC(N2Cc3c(N)cccc3C2=O)C1=O (centres undefined)

IC50 [21]: 417 nM
IC50 [2]: 466 nM
IC50 [22]: 242 nM
IC50 [23]: 195 nM
IC50 [24]: 1310 nM
IC50 [25]: 8590 nM
SMILES: COc1ccc(/C=C\c2cc(OC)c(OC)c(OC)c2)cc1OC(=O)CCCCOCCc1cn(CCCCCC(=O)Nc2cccc3c2C(=O)N(C2CCC(=O)NC2=O)C3=O)nn1 (centres undefined)

IC50 [21]: 247 nM
IC50 [2]: 544 nM
IC50 [22]: 128 nM
IC50 [23]: 61 nM
IC50 [24]: 1270 nM
IC50 [25]: 4320 nM
SMILES: COc1ccc(/C=C\c2cc(OC)c(OC)c(OC)c2)cc1OC(=O)CCCCOCCc1cn(CCCC(=O)Nc2cccc3c2C(=O)N(C2CCC(=O)NC2=O)C3=O)nn1 (centres undefined)
